# Results from US8217048B2, “Inhibitors of serine proteases, particularly HCV NS3-NS4A protease” (Vertex Pharmaceuticals Incorporated, priority 2003, dated 2012).
# “And” between values parts separate entries of the source, which are not always exact repeats. Equal values may be shown once.
# Experiments:
# [1] = biological target: T1, HCV NS3-NS4A protease (Hepatitis C virus genotype 1a, UniProt P27958); assay: HCV Ki Assay (enzyme, Example 5); type: biochemical; details: Ki values, tested according to Example 5 (enzyme); 5AB substrate, tNS3 with KK4A
# T1 construct: The buffer, KK4A, DTT, and tNS3 were combined
# Method: HPLC Microbore Method for Separation of 5AB Substrate and Products
# NH2-Glu-Asp-Val-Val-(alpha)Abu-Cys-Ser-Met-Ser-Tyr-COOH
# A stock solution of 20 mM 5AB (or concentration of your choice) was made in DMSO w/0.2M DTT. This was stored in aliquots at −20 C.
# Buffer: 50 mM HEPES, pH 7.8; 20% glycerol; 100 mM NaCl
# Total assay volume was 100 μL
# The buffer, KK4A, DTT, and tNS3 were combined; distributed 78 μL each into wells of 96 well plate. This was incubated at 30 C for ˜5-10 min.
# 2.5 μL of appropriate concentration of test compound was dissolved in DMSO (DMSO only for control) and added to each well. This was incubated at room temperature for 15 min.
# Initiated reaction by addition of 20 μL of 250 μM 5AB substrate (25 μM concentration is equivalent or slightly lower than the Km for 5AB).
# Incubated for 20 min at 30 C.
# Terminated reaction by addition of 25 μL of 10% TFA
# Transferred 120 μL aliquots to HPLC vials
# Separated SMSY product from substrate and KK4A by the following method:
# Microbore Separation Method:
# Instrumentation: Agilent 1100
# Column thermostated chamber G1316A
# Diode array detector G1315A
# Solvent A=HPLC grade water+0.1% TFA
# Solvent B=HPLC grade acetonitrile+0.1% TFA
# Stop time: 17 min Post-run time: 10 min.
# [2] = system: Cells containing hepatitis C virus (HCV) replicon; assay: HCV Replicon Cell Assay (Example 4); type: cell-based; details: 48 h, tested according to Example 4 (cell), 50% inhibition of HCV RNA level, 48-hour incubation
# Method: HCV Replicon Cell Assay Protocol
# Cells containing hepatitis C virus (HCV) replicon were maintained in DMEM containing 10% fetal bovine serum (FBS), 0.25 mg per ml of G418, with appropriate supplements (media A).
# On day 1, replicon cell monolayer was treated with a trypsin:EDTA mixture, removed, and then media A was diluted into a final concentration of 100,000 cells per ml wit. 10,000 cells in 100 ul were plated into each well of a 96-well tissue culture plate, and cultured overnight in a tissue culture incubator at 37° C.
# On day 2, compounds (in 100% DMSO) were serially diluted into DMEM containing 2% FBS, 0.5% DMSO, with appropriate supplements (media B). The final concentration of DMSO was maintained at 0.5% throughout the dilution series.
# Media on the replicon cell monolayer was removed, and then media B containing various concentrations of compounds was added. Media B without any compound was added to other wells as no compound controls.
# Cells were incubated with compound or 0.5% DMSO in media B for 48 hours in a tissue culture incubator at 37° C. At the end of the 48-hour incubation, the media was removed, and the replicon cell monolayer was washed once with PBS and stored at −80° C. prior to RNA extraction.
# Culture plates with treated replicon cell monolayers were thawed, and a fixed amount of another RNA virus, such as Bovine Viral Diarrhea Virus (BVDV) was added to cells in each well, RNA extraction reagents (such as reagents from RNeasy kits) were added to the cells immediately to avoid degradation of RNA. Total RNA was extracted according the instruction of manufacturer with modification to improve extraction efficiency and consistency. Finally, total cellular RNA, including HCV replicon RNA, was eluted and stored at −80° C. until further processing.
# A Taqman real-time RT-PCR quantification assay was set up with two sets of specific primers and probe. One was for HCV and the other was for BVDV. Total RNA extractants from treated HCV replicon cells was added to the PCR reactions for quantification of both HCV and BVDV RNA in the same PCR well. Experimental failure was flagged and rejected based on the level of BVDV RNA in each well. The level of HCV RNA in each well was calculated according to a standard curve run in the same PCR plate. The percentage of inhibition or decrease of HCV RNA level due to compound treatment was calculated using the DMSO or no compound control as 0% of inhibition. The IC50 (concentration at which 50% inhibition of HCV RNA level is observed) was calculated from the titration curve of any given compound.
# T1 sequence (P27958 1658-1711): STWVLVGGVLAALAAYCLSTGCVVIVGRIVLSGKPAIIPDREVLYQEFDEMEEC
# T1 sequence (P27958 1027-1208): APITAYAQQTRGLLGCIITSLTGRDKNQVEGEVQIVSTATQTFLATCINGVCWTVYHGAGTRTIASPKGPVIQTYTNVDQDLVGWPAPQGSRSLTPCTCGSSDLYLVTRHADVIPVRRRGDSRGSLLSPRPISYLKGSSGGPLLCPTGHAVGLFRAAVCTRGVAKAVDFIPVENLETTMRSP
SMILES,Ki [1],IC50 [2] [nM]
CCC[C@H](NC(=O)[C@@H]1C[C@@H](Oc2nc(C(F)(F)F)nc3ccccc23)CN1C(=O)[C@@H](NC(=O)[C@@H](NC(=O)c1cnccn1)C1CCCCC1)C(C)(C)C)C(=O)C(=O)NC1CC1 [Compound 60],100 to 300 nM,> 1000
CCC[C@H](NC(=O)[C@@H]1C[C@@H](Oc2ccc(C(F)(F)F)cc2)CN1C(=O)[C@@H](NC(=O)[C@@H](NC(=O)c1cnccn1)C1CCCCC1)C(C)(C)C)C(=O)C(=O)NC1CC1 [Compound 13],100 to 300 nM,< 500
CCC[C@H](NC(=O)[C@@H]1C[C@@H](Oc2cccc(OC)c2OC)CN1C(=O)[C@@H](NC(=O)[C@@H](NC(=O)c1cnccn1)C1CCCCC1)C(C)(C)C)C(=O)C(=O)NC1CC1 [Compound 23],100 to 300 nM,–
CCC[C@H](NC(=O)[C@@H]1C[C@@H](Oc2ccnc3cc(OC)ccc23)CN1C(=O)[C@@H](NC(=O)[C@@H](NC(=O)c1cnccn1)C1CCCCC1)C(C)(C)C)C(=O)C(=O)NC1CC1 [Compound 41],< 100 nM,> 1000
CCC[C@H](NC(=O)[C@@H]1C[C@@H](Oc2cccc(C(=O)OC)c2)CN1C(=O)[C@@H](NC(=O)[C@@H](NC(=O)c1cnccn1)C1CCCCC1)C(C)(C)C)C(=O)C(=O)NC1CC1 [Compound 45],< 100 nM,< 500
CCC[C@H](NC(=O)[C@@H]1C[C@@H](Oc2cccc(C(=O)NC)c2)CN1C(=O)[C@@H](NC(=O)[C@@H](NC(=O)c1cnccn1)C1CCCCC1)C(C)(C)C)C(=O)C(=O)NC1CC1 [Compound 46],< 100 nM,< 500
CCCC(NC(=O)C1CC(Oc2cccc(Cl)c2Cl)CN1C(=O)C(NC(=O)C(NC(=O)c1cnccn1)C1CCCCC1)C(C)(C)C)C(=O)C(=O)NC1CC1 (stereo not shown) [Compound 5],100 to 300 nM,500 to 1000
CCC[C@H](NC(=O)[C@@H]1C[C@@H](Oc2ccc(Cl)cn2)CN1C(=O)[C@@H](NC(=O)[C@@H](NC(=O)c1cnccn1)C1CCCCC1)C(C)(C)C)C(=O)C(=O)CC(C)C [Compound 75],> 300 nM,–
CCC[C@H](NC(=O)[C@@H]1C[C@@H](Oc2ccccc2)CN1C(=O)[C@@H](NC(=O)[C@@H](NC(=O)c1cnccn1)C1CCCCC1)C(C)(C)C)C(=O)C(=O)NC1CC1 [Compound 35],< 100 nM,< 500
CCC[C@H](NC(=O)[C@@H]1C[C@@H](Oc2cccc(F)c2)CN1C(=O)[C@@H](NC(=O)[C@@H](NC(=O)c1cnccn1)C1CCCCC1)C(C)(C)C)C(=O)C(=O)NC1CC1 [Compound 18],100 to 300 nM,< 500
CCC[C@H](NC(=O)[C@@H]1C[C@@H](Oc2ccc(C(=O)OC(C)C)cc2)CN1C(=O)[C@@H](NC(=O)[C@@H](NC(=O)c1cnccn1)C1CCCCC1)C(C)(C)C)C(=O)C(=O)NC1CC1 [Compound 61],< 100 nM,< 500
CCCC(NC(=O)[C@@H]1C[C@@H](Oc2ccccc2)CN1C(=O)[C@@H](NC(=O)[C@@H](NC(=O)c1cnccn1)C1CCCCC1)C(C)(C)C)C(=O)C(=O)NC1CC1 (stereo partly shown) [Compound 34],100 to 300 nM,< 500
CCC[C@H](NC(=O)C1C[C@@H](Oc2ccccc2OC(F)(F)F)CN1C(=O)[C@@H](NC(=O)[C@@H](NC(=O)c1cnccn1)C1CCCCC1)C(C)(C)C)C(=O)C(=O)NC1CC1 (stereo partly shown) [Compound 9],> 300 nM,–
CCC[C@H](NC(=O)[C@@H]1C[C@@H](Oc2ccnc3ccccc23)CN1C(=O)[C@@H](NC(=O)[C@@H](NC(=O)c1cnccn1)C1CCCCC1)C(C)(C)C)C(=O)C(=O)NC1CC1 [Compound 39],< 100 nM,< 500
CCCC(NC(=O)[C@H]1C[C@H](Oc2cc(C(F)(F)F)ncn2)CN1C(=O)C(NC(=O)C(NC(=O)c1cnccn1)C1CCCCC1)C(C)(C)C)C(=O)C(=O)NC1CC1 (stereo partly shown) [Compound 30],100 to 300 nM,–
CCC[C@H](NC(=O)[C@@H]1C[C@@H](Oc2cccc3ccccc23)CN1C(=O)[C@@H](NC(=O)[C@@H](NC(=O)c1ncc[nH]1)C1CCCCC1)C(C)(C)C)C(=O)C(=O)NC1CC1 [Compound 37],< 100 nM,–
CCCC(NC(=O)[C@H]1C[C@H](Oc2ccc(C(F)(F)F)cn2)CN1C(=O)C(NC(=O)C(NC(=O)c1cnccn1)C1CCCCC1)C(C)(C)C)C(=O)C(=O)NC1CC1 (stereo partly shown) [Compound 27],> 300 nM,–
CCCC(NC(=O)[C@H]1C[C@H](Oc2nccc(C(F)(F)F)n2)CN1C(=O)C(NC(=O)C(NC(=O)c1cnccn1)C1CCCCC1)C(C)(C)C)C(=O)C(=O)NC1CC1 (stereo partly shown) [Compound 74],> 300 nM,–
CCCC(NC(=O)[C@H]1C[C@H](Oc2ncccc2[N+](=O)[O-])CN1C(=O)C(NC(=O)C(NC(=O)c1cnccn1)C1CCCCC1)C(C)(C)C)C(=O)C(=O)NC1CC1 (stereo partly shown) [Compound 33],100 to 300 nM,–
CCC[C@H](NC(=O)[C@@H]1C[C@@H](Oc2cccc(OC)c2)CN1C(=O)[C@@H](NC(=O)[C@@H](NC(=O)c1cnccn1)C1CCCCC1)C(C)(C)C)C(=O)C(=O)NC1CC1 [Compound 21],> 300 nM,–
CCC[C@H](NC(=O)[C@@H]1C[C@@H](Oc2ccccc2-c2ccccc2)CN1C(=O)[C@@H](NC(=O)[C@@H](NC(=O)c1cnccn1)C1CCCCC1)C(C)(C)C)C(=O)C(=O)NC1CC1 [Compound 17],> 300 nM,–
CCC[C@H](NC(=O)[C@@H]1C[C@@H](Oc2ccc(C(=O)OC)cc2)CN1C(=O)[C@@H](NC(=O)[C@@H](NC(=O)c1cnccn1)C1CCCCC1)C(C)(C)C)C(=O)C(=O)NC1CC1 [Compound 52],< 100 nM,–
CCCC(NC(=O)[C@H]1C[C@H](Oc2ccnc(C(F)(F)F)n2)CN1C(=O)C(NC(=O)C(NC(=O)c1cnccn1)C1CCCCC1)C(C)(C)C)C(=O)C(=O)NC1CC1 (stereo partly shown) [Compound 29],> 300 nM,–
CCCC(NC(=O)[C@H]1C[C@H](Oc2ncncc2F)CN1C(=O)C(NC(=O)C(NC(=O)c1cnccn1)C1CCCCC1)C(C)(C)C)C(=O)C(=O)NC1CC1 (stereo partly shown) [Compound 32],< 100 nM,–
CCCC(NC(=O)[C@H]1C[C@H](Oc2ccc(-c3ccccc3)nn2)CN1C(=O)C(NC(=O)C(NC(=O)c1cnccn1)C1CCCCC1)C(C)(C)C)C(=O)C(=O)NC1CC1 (stereo partly shown) [Compound 28],> 300 nM,–
C=CCCC(=O)C(=O)[C@H](CCC)NC(=O)[C@@H]1C[C@@H](Oc2ccc(Cl)cn2)CN1C(=O)[C@@H](NC(=O)[C@@H](NC(=O)c1cnccn1)C1CCCCC1)C(C)(C)C [Compound 76],100 to 300 nM and > 300 nM,–
CCCC(NC(=O)[C@H]1C[C@H](Oc2nccc(-c3ccccc3)c2C#N)CN1C(=O)C(NC(=O)C(NC(=O)c1cnccn1)C1CCCCC1)C(C)(C)C)C(=O)C(=O)NC1CC1 (stereo partly shown) [Compound 31],100 to 300 nM,–
CCC[C@H](NC(=O)[C@@H]1C[C@@H](Oc2ccc(Cl)cn2)CN1C(=O)[C@@H](NC(=O)[C@@H](NC(=O)[C@H](C)NC(=O)OC)C1CCCCC1)C(C)(C)C)C(=O)C(=O)NC1CC1 [Compound 69],< 100 nM,–
CCC[C@H](NC(=O)[C@@H]1C[C@@H](Oc2cccc(Cl)n2)CN1C(=O)[C@@H](NC(=O)[C@@H](NC(=O)c1cnccn1)C1CCCCC1)C(C)(C)C)C(=O)C(=O)NC1CC1 [Compound 25],100 to 300 nM,–
